Measurements as given in patent US9587225B2, “Low-molecular-compound for improving production, maintenance and proliferation of pluripotent stem cells, composition comprising the same, and culture method” (KOREA RESEARCH INSTITUTE OF BIOSCIENCE AND BIOTECHNOLOGY, priority 2012, dated 2017).

Tests used:
[1] = system: Mouse embryonic fibroblasts (OG2-MEF; hemizygous for the Oct4-GFP transgene); experiment: Reprogramming of mouse embryonic fibroblasts, Oct4-GFP colony count; format: cell-based
Experimental: FIG. 1 is a process of screening mouse cell reprogramming factors using analog library screening of novel trans-3-indoleacrylic acid-based compounds. In order to screen low-molecular-weight compounds that promote the production of reprogrammed stem cells, mouse embryonic stem cells (OG2-MEF; hemizygous for the Oct4-GFP transgene) were transduced with reprogramming viruses (Oct4, Sox2, Klf4, and c-Myc). After 5 days, the cells were seeded on gelatin-coated plates and then cultured in mouse embryonic stem cell culture media containing each of low-molecular-weight compounds until colonies having a morphology similar to that of mouse embryonic stem cells were formed. After 15 days, the number of colonies expressing endogenous Oct4 GFP fluorescence was measured, and compounds that increased the efficiency of reprogramming compared to that of a control group were selected. […] Oct4 (O), Sox2 (S), Klf4 (K), and cMyc (M). FIG. 1B is a graph showing the increase in efficiency of reprogramming by RSC-133 and ID-558 among screened compounds. The values shown on the graph are mean values. The data are expressed as mean±SD (n=3).
The OSKM reprogramming factor virus was produced according to the method of Example 3. […] At 15 days after the transfection, the number of either colonies showing AP activity or colonies expressing endogenous Oct4 GFP fluorescence was measured to determine the efficiency of reprogramming.
To discover low-molecular-weight compounds that are involved in the reprogramming process, analog library screening of novel trans-3-indoleacrylic acid-based compounds was performed in mouse cells. Mouse embryonic fibroblasts (OG2-MEF: hemizygous for the Oct4-GFP transgene) were transfected with reprogramming viruses of Oct4, Sox2, Klf4 and c-Myc (OSKM), and after 5 days, the cells were seeded on gelatin-coated 12-well plates and incubated with mouse embryonic stem cell culture medium containing each of low-molecular-weight compounds until colonies having a morphology similar to that mouse stem cells were formed so that endogenous Oct4 GFP fluorescence was expressed (FIG. 1A). […]

human skin fibroblasts = experiment: MTT cytotoxicity assay; format: cell-based; conditions: concentration up to 50 μM, 72 hours after treatment (FIG. 9)
Experimental: FIG. 9 is a graph showing the results of analyzing the effect of RSC-133 on the cytotoxicity of human skin fibroblasts. At 72 hours after treatment with various concentrations of RSC-133, cytotoxicity was measured by MTT (3-(4,5-dimethylthiazol-2-yl)-2,5-diphenyltetrazolium bromide (yellow tetrazole) assays. The values shown on the graph are mean values. The data are expressed as mean±SD (n=3).

H3K9ace = experiment: H3K9 acetylation during reprogramming (immunocytochemistry, Western blot); format: cell-based, human
Experimental: The left panel is a set of photographs showing the results obtained by inducing the reprogramming of human skin fibroblasts, culturing the cells for 10 days in the presence or absence of RSC-133, and then analyzing the cells by immunocytochemistry using monoclonal antibodies for H3K9ace and an undifferentiation marker (Nanog) (scale bar=200 μm). […] H3 protein was used as an internal control.
For immunostaining, cells were seeded on Matrigel-coated 4-well Lab-Tek chamber slides (Nunc, Naperville, Ill.) and cultured for 5 days under the indicated conditions. The cells were fixed in 4% paraformaldehyde at room temperature for 15 minutes, and then washed with PBS/0.2% BSA. Next, the cells were passed through PBS/0.2% BSA/0.1% Triton X-100 for 15 minutes, and then incubated with 4% normal donkey serum (Molecular Probes, Eugene, Oreg., USA) in PBS/0.2% BSA at room temperature for 1 hour. The cells were diluted with PBS/0.2% BSA, and then reacted with primary antibody at 4° C. for 2 hours. After washing, the cells were reacted with FITC- or Alexa594-conjugated secondary antibody (Invitrogen) in PBS/0.2% BSA at room temperature for 1 hour. The cells were counter-stained with 10 μg/ml DAPI.
Most of various low-molecular-weight compounds known to be involved in the reprogramming process are involved genome methylation patterns, histone acetylation patterns or major signaling mechanisms. […]

NC(=O)c1cccc(NC(=O)/C=C/c2c[nH]c3ccccc23)c1 [RSC-133, 3-[3-(1H-indol-3-yl)-acrylamido]-benzamide]
efficiency of reprogramming (number of colonies expressing endogenous Oct4 GFP fluorescence) ([1]; OG2-MEF transfected with OSKM, after 15 days, compared to control group): showed the effect of increasing the efficiency of reprogramming | efficiency of reprogramming compared to reported compounds ([1]; vs 5-Azacytidine, BIX-01294, VPA or increased MOI of OSKM virus (FIG. 2a)): greatly increased the efficiency of reprogramming | cytotoxicity (MTT) (human skin fibroblasts): did not induce cytotoxicity | H3K9ace level by Western blot (H3K9ace; H3 as internal control (FIG. 18 right)): The same results were also obtained | ratio of undifferentiated cells having a high H3K9ace level (immunocytochemistry) (H3K9ace; cultured 10 days in presence or absence of RSC-133 (FIG. 18 left)): higher in the test group treated with RSC-133 than in the control group
